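Cells were grown in 96-well plates and exposed to each compound for 48 hours at five concentrations; endpoints were interpolated linearly between bracketing concentrations, or set to the highest concentration if not reached. At the GI50, growth is halved.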 Calls of active or inactive are those of the source. No stated cut-off is given here; in the data, active = GI50 up to about 1.1 µM and inactive = higher.
Key:
Experiment in all cases: NCI anticancer screen, dose series, 48 h
786-0 = system: 786-0
A549 = system: A549
ACHN = system: ACHN
CAKI-1 = system: CAKI-1
CCRF-CEM = system: CCRF-CEM
COLO 205 = system: COLO 205
DU-145 = system: DU-145
EKVX = system: EKVX
HCT-116 = system: HCT-116
HCT-15 = system: HCT-15
HL-60 = system: HL-60
HOP-92 = system: HOP-92
HT-29 = system: HT-29
Hs-578T = system: Hs-578T
KM12 = system: KM12
M14 = system: M14
MCF7 = system: MCF7
MDA-MB-231 = system: MDA-MB-231
MDA-MB-435 = system: MDA-MB-435
MDA-N = system: MDA-N
MOLT-4 = system: MOLT-4
Malme-3M = system: Malme-3M
NCI-H226 = system: NCI-H226
NCI-H23 = system: NCI-H23
NCI-H460 = system: NCI-H460
NCI-H522 = system: NCI-H522
NCI/ADR-RES = system: NCI/ADR-RES
OVCAR-5 = system: OVCAR-5
OVCAR-8 = system: OVCAR-8
PC-3 = system: PC-3
RPMI-8226 = system: RPMI-8226
RXF 393 = system: RXF 393
SF-268 = system: SF-268
SF-295 = system: SF-295
SF-539 = system: SF-539
SK-MEL-2 = system: SK-MEL-2
SK-MEL-5 = system: SK-MEL-5
SK-OV-3 = system: SK-OV-3
SN12C = system: SN12C
SNB-19 = system: SNB-19
SNB-75 = system: SNB-75
SR = system: SR
SW-620 = system: SW-620
T47D = system: T47D
U-251 = system: U-251
UACC-257 = system: UACC-257
UACC-62 = system: UACC-62
UO-31 = system: UO-31
HOP-62 = system: HOP-62
IGROV-1 = system: IGROV-1
K562 = system: K562
LOX IMVI = system: LOX IMVI
OVCAR-3 = system: OVCAR-3
SK-MEL-28 = system: SK-MEL-28
TK-10 = system: TK-10
HCC 2998 = system: HCC 2998

O=C1c2ccccc2-c2nnc3c(c21)-c1ccccc1C3
GI50 (786-0): > 100 µM (inactive)
GI50 (A549): 62.7 µM (inactive)
GI50 (ACHN): 27.5 µM (inactive)
GI50 (CAKI-1): 65.6 µM (inactive)
GI50 (CCRF-CEM): 89.3 µM (inactive)
GI50 (COLO 205): 46.6 µM (inactive)
GI50 (DU-145): > 100 µM (inactive)
GI50 (EKVX): 18.5 µM (inactive)
GI50 (HCT-116): 64 µM (inactive)
GI50 (HCT-15): 39.4 µM
GI50 (HL-60): 60.5 µM (inactive)
GI50 (HOP-92): > 100 µM (inactive)
GI50 (HT-29): 48 µM (inactive)
GI50 (Hs-578T): > 100 µM (inactive)
GI50 (KM12): > 100 µM (inactive)
GI50 (M14): > 100 µM (inactive)
GI50 (MCF7): 64.6 µM (inactive)
GI50 (MDA-MB-231): > 100 µM (inactive)
GI50 (MDA-MB-435): > 100 µM (inactive)
GI50 (MDA-N): > 100 µM (inactive)
GI50 (MOLT-4): 24.5 µM (inactive)
GI50 (Malme-3M): > 100 µM (inactive)
GI50 (NCI-H226): 43.5 µM (inactive)
GI50 (NCI-H23): > 100 µM (inactive)
GI50 (NCI-H460): 29.2 µM (inactive)
GI50 (NCI-H522): 48.6 µM (inactive)
GI50 (NCI/ADR-RES): > 100 µM (inactive)
GI50 (OVCAR-5): > 100 µM (inactive)
GI50 (OVCAR-8): 44.2 µM (inactive)
GI50 (PC-3): > 100 µM (inactive)
GI50 (RPMI-8226): 57.1 µM (inactive)
GI50 (RXF 393): > 100 µM (inactive)
GI50 (SF-268): > 100 µM (inactive)
GI50 (SF-295): > 100 µM (inactive)
GI50 (SF-539): 93.8 µM (inactive)
GI50 (SK-MEL-2): > 100 µM (inactive)
GI50 (SK-MEL-5): 66.8 µM (inactive)
GI50 (SK-OV-3): > 100 µM (inactive)
GI50 (SN12C): > 100 µM (inactive)
GI50 (SNB-19): 39 µM (inactive)
GI50 (SNB-75): 76 µM (inactive)
GI50 (SR): 12 µM (inactive)
GI50 (SW-620): 53.2 µM (inactive)
GI50 (T47D): > 100 µM (inactive)
GI50 (U-251): 67 µM (inactive)
GI50 (UACC-257): > 100 µM (inactive)
GI50 (UACC-62): 37.6 µM (inactive)
GI50 (UO-31): 23.2 µM (inactive)

CC1(C)CC(=O)c2c(nc3c(ccc4ccccc43)c2-c2ccc(NC(=O)CCCC(=O)Nc3ccc(-c4c5c(nc6c4ccc4ccccc46)CC(C)(C)CC5=O)cc3)cc2)C1
GI50 (786-0): > 100 µM (inactive)
GI50 (A549): > 100 µM (inactive)
GI50 (ACHN): > 100 µM (inactive)
GI50 (CAKI-1): > 100 µM (inactive)
GI50 (CCRF-CEM): > 100 µM (inactive)
GI50 (COLO 205): > 100 µM (inactive)
GI50 (DU-145): > 100 µM (inactive)
GI50 (EKVX): > 100 µM (inactive)
GI50 (HCT-116): > 100 µM (inactive)
GI50 (HCT-15): 46.5 µM
GI50 (HL-60): > 100 µM (inactive)
GI50 (HOP-62): > 100 µM (inactive)
GI50 (HT-29): > 100 µM (inactive)
GI50 (Hs-578T): > 100 µM (inactive)
GI50 (IGROV-1): 58.5 µM (inactive)
GI50 (K562): > 100 µM (inactive)
GI50 (KM12): > 100 µM (inactive)
GI50 (LOX IMVI): > 100 µM (inactive)
GI50 (M14): > 100 µM (inactive)
GI50 (MCF7): > 100 µM (inactive)
GI50 (MDA-MB-231): > 100 µM (inactive)
GI50 (MDA-MB-435): > 100 µM (inactive)
GI50 (MDA-N): > 100 µM (inactive)
GI50 (MOLT-4): > 100 µM (inactive)
GI50 (NCI-H226): > 100 µM (inactive)
GI50 (NCI-H460): > 100 µM (inactive)
GI50 (NCI-H522): > 100 µM (inactive)
GI50 (NCI/ADR-RES): > 100 µM (inactive)
GI50 (OVCAR-3): > 100 µM (inactive)
GI50 (OVCAR-5): > 100 µM (inactive)
GI50 (OVCAR-8): > 100 µM (inactive)
GI50 (PC-3): > 100 µM (inactive)
GI50 (RPMI-8226): > 100 µM (inactive)
GI50 (RXF 393): > 100 µM (inactive)
GI50 (SF-268): > 100 µM (inactive)
GI50 (SF-295): > 100 µM (inactive)
GI50 (SF-539): > 100 µM (inactive)
GI50 (SK-MEL-28): > 100 µM (inactive)
GI50 (SK-MEL-2): > 100 µM (inactive)
GI50 (SK-MEL-5): > 100 µM (inactive)
GI50 (SK-OV-3): > 100 µM (inactive)
GI50 (SN12C): > 100 µM (inactive)
GI50 (SNB-19): > 100 µM (inactive)
GI50 (SNB-75): > 100 µM (inactive)
GI50 (SR): > 100 µM (inactive)
GI50 (SW-620): > 100 µM (inactive)
GI50 (T47D): > 100 µM (inactive)
GI50 (TK-10): > 100 µM (inactive)
GI50 (U-251): > 100 µM (inactive)
GI50 (UACC-257): > 100 µM (inactive)
GI50 (UO-31): > 100 µM (inactive)

O=c1c2ccccc2nc2n1CCc1c-2[nH]c2cc3c(cc12)OCO3
GI50 (ACHN): 3.98 µM (inactive)
GI50 (COLO 205): > 25 µM (inactive)
GI50 (EKVX): > 25 µM (inactive)
GI50 (HCC 2998): > 25 µM (inactive)
GI50 (HCT-116): 3.32 µM (inactive)
GI50 (HCT-15): 8.65 µM
GI50 (HL-60): > 25 µM (inactive)
GI50 (HOP-62): 9.42 µM (inactive)
GI50 (IGROV-1): > 25 µM (inactive)
GI50 (K562): > 25 µM (inactive)
GI50 (KM12): 15.7 µM (inactive)
GI50 (M14): > 25 µM (inactive)
GI50 (MCF7): > 25 µM (inactive)
GI50 (MDA-MB-231): 9.71 µM (inactive)
GI50 (MDA-MB-435): 13.6 µM (inactive)
GI50 (MDA-N): 17.6 µM (inactive)
GI50 (MOLT-4): > 25 µM (inactive)
GI50 (NCI-H522): 5.4 µM (inactive)
GI50 (NCI/ADR-RES): > 25 µM (inactive)
GI50 (OVCAR-5): > 25 µM (inactive)
GI50 (OVCAR-8): 5.74 µM (inactive)
GI50 (PC-3): > 25 µM (inactive)
GI50 (RPMI-8226): > 25 µM (inactive)
GI50 (SF-268): 5.41 µM (inactive)
GI50 (SF-295): 5.55 µM (inactive)
GI50 (SF-539): 5.77 µM (inactive)
GI50 (SK-MEL-28): > 25 µM (inactive)
GI50 (SK-MEL-5): 13.7 µM (inactive)
GI50 (SK-OV-3): 6.95 µM (inactive)
GI50 (SN12C): > 25 µM (inactive)
GI50 (SNB-19): 5.11 µM (inactive)
GI50 (SNB-75): 6.61 µM (inactive)
GI50 (SR): > 25 µM (inactive)
GI50 (SW-620): > 25 µM (inactive)
GI50 (T47D): > 25 µM (inactive)
GI50 (TK-10): > 25 µM (inactive)
GI50 (U-251): 7.28 µM (inactive)
GI50 (UACC-257): > 25 µM (inactive)
GI50 (UO-31): > 25 µM (inactive)

— ChEMBL document CHEMBL1201862, “PubChem BioAssay data set” (2004)
